Laboratory results as given in patent publication US5232917A, “Methods, compositions, and compounds for allosteric modulation of the GABA receptor by members of the androstane and pregnane series” (priority 1991, dated 1993).

Target: T1, estrogen receptor (Bos taurus, UniProt P49884)
T1 construct: from tissue; host or cells: bovine uterus cytosol
T1 sequence (P49884 1-596): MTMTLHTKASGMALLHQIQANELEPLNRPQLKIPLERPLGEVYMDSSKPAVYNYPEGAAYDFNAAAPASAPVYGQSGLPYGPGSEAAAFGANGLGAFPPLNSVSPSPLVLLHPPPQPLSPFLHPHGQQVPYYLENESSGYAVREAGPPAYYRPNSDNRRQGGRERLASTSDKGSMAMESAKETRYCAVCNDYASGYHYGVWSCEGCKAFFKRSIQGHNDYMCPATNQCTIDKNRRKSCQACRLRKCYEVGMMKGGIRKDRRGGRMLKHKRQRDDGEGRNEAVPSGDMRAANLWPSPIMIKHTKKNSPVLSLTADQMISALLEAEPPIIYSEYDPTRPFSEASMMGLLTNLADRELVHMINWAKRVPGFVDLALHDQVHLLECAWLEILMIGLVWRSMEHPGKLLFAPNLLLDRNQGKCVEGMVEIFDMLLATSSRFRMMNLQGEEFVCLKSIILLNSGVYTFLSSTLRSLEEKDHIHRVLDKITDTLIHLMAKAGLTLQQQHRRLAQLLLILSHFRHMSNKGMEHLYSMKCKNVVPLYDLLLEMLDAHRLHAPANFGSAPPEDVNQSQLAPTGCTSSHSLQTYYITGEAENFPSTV
Assay: Inhibition of 3H-estradiol binding to bovine uteral estrogen receptors
Conditions: read-out: % of inhibition of 3H-estradiol binding, B, competitor 10^-6 M; 0.25 nM 3H-estradiol
Description: The hormonal activity of drugs described herein was further studied through testing their potential estrogenic, progestinic, mineralocorticoid and glucocorticoid activities. These activities were analyzed by monitoring the ability of the drugs to inhibit binding of the steroid hormones to their respective hormone receptors.

C[C@]12CC[C@@H](O)C[C@@H]1CC[C@@H]1[C@@H]2CC[C@]2(C)[C@@H](C(=O)CO)CC[C@@H]12 [Example 5α-THDOC, 3α,21-dihydroxy-5α-pregnan-20-one]
inhibition at 1 µM: 4%
